Experimental data as given in PMC12357092, “Two stages of substrate discrimination dictate selectivity in the Escherichia coli MetNI-Q ABC transporter system” (The Journal of Biological Chemistry, 2025).
Like-named read-outs stand apart in the source and are kept apart here.

Assays:
MetQ (Escherichia coli) [1] = molecular target: MetQ (Escherichia coli) (UniProt P28635); settings: cited from earlier work
MetQ (Escherichia coli) [2] = molecular target: MetQ (Escherichia coli) (UniProt P28635); settings: cited from earlier work; remark: listed apart in the source
MetQ [3] = molecular target: T1, MetQ (Escherichia coli, UniProt P28635); test: isothermal titration calorimetry; type: binding
T1 construct: secreted, non-lipidated periplasmic MetQ, C-terminal 6xHis, from E. coli BL21(DE3) Gold
T1 sequence (P28635 23-271): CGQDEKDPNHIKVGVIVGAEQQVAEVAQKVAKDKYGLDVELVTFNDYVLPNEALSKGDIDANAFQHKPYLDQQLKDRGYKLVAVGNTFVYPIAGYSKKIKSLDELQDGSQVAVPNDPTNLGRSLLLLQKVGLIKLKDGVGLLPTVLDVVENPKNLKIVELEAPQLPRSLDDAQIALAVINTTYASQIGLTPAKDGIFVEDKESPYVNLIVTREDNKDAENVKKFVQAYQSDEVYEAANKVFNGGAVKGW

MetNI [4] = molecular target: T2, MetNI (Escherichia coli, UniProt P30750); test: ATPase inhibition, EnzChek phosphate assay; type: biochemical
T2 construct: gene metN; DDM-solubilized full MetNI transporter (MetN2MetI2), His-tag purified, prepared as previously described; with D-methionine transport system permease protein MetI
Description: ATPase inhibition, EnzChek phosphate assay on MetNI | we measured the inhibitory constants (Ki) for both L- and D-Met

MetQ [5] = molecular target: T3, MetQ (Escherichia coli, UniProt P28635, N229A); test: isothermal titration calorimetry; type: binding
T3 construct: secreted, non-lipidated periplasmic MetQ, C-terminal 6xHis, from E. coli BL21(DE3) Gold
T3 sequence (P28635 23-271 N229A): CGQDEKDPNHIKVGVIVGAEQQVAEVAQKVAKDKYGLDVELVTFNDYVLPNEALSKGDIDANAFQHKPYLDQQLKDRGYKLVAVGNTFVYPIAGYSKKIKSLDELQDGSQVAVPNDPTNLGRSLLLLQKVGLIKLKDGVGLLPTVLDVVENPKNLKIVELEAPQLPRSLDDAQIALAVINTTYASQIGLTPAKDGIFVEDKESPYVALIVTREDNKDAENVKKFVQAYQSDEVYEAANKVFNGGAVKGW

MetNI [6] = molecular target: T4, MetNI (Escherichia coli, UniProt P30750, N295A); test: ATPase inhibition, EnzChek phosphate assay; type: biochemical
T4 construct: gene metN; DDM-solubilized full MetNI transporter (MetN2MetI2), His-tag purified, prepared as previously described; with D-methionine transport system permease protein MetI

MetNI-Q = molecular target: T5, MetNI-Q (Escherichia coli, UniProt P28635+P31547); test: proteoliposome uptake of 3H-methionine; type: biochemical; settings: 50 μM L-Met, 50 μM WT MetQ, ATP-regenerating system in lumen, 5 mM MgCl2, pH 7.5, 37 °C; labelled compound
T5 construct: gene metQ
T5 sequence (P28635 23-271): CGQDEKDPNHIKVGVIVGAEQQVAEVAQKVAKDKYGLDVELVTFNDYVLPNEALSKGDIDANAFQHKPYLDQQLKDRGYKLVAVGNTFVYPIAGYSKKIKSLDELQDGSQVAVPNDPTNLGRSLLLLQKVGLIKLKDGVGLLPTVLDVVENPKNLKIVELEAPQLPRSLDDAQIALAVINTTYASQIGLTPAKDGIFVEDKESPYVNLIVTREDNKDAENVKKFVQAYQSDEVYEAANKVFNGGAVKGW
T5 sequence (P31547 1-217): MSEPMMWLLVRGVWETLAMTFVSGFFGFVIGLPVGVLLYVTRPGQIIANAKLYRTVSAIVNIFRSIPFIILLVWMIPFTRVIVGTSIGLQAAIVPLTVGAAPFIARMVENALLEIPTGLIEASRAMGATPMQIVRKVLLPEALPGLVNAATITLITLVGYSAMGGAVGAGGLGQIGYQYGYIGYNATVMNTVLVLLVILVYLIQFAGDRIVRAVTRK
T5 sequence (P30750 1-343 partner): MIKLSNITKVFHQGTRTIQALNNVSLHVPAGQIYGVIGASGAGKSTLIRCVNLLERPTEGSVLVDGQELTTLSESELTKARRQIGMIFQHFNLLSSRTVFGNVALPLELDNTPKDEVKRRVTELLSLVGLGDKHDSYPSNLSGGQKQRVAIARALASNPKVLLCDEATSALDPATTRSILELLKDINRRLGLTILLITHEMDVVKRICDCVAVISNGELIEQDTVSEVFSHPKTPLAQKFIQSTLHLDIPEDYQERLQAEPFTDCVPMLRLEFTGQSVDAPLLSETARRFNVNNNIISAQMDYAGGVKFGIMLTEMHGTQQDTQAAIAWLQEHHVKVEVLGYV

T4 sequence (P30750 whole entry N295A, one chain of several): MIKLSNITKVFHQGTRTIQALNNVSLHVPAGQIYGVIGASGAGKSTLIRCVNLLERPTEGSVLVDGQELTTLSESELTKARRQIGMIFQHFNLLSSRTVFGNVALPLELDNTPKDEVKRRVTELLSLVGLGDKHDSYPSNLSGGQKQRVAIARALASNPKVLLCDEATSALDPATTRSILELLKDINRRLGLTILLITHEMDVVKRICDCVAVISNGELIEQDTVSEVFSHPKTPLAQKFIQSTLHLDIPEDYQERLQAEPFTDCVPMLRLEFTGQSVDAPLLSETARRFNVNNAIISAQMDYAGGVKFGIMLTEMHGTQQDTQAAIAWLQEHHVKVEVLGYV

Compound | Kd (MetQ (Escherichia coli) [1]) [µM] | Kd (MetQ (Escherichia coli) [2]) [µM] | Kd (MetQ [3]) [µM] | Ki (MetNI [4]) [µM] | Kd (MetQ [5]) [µM] | Ki (MetNI [6]) [µM] | uptake rate (MetNI-Q)
MetNI (from UniProt P30750) | 1.1 | 0.027 |  |  |  |  | 
CSCC[C@H](N)C(=O)O [L-Met] |  |  | 0.0066 ± 0.0006 | 120 ± 20 | 300 ± 70 | 3300 ± 300 | L-Met was imported into proteoliposomes
CSCC[C@@H](N)C(=O)O [D-Met] |  |  | 6.6 ± 0.6 | 5400 ± 100 | 110 ± 30 | 2400 ± 400 | 
